This assay has as its target T1, CFTR ΔF508 mutant (Homo sapiens, UniProt P13569, DEL508-508).
T1 construct: expressed in transfected cells; host or cells: CFBE41o- (adenoviral transduction)
Description: YFP-halide influx assay for the CFTR-ΔF508 mutation, gluconate buffer. It is filed as cell-based. The settings on record: CFBE41o- cells, forskolin 10.67 μM. The source says:
The YFP halide influx assay measures the functionality of the cystic fibrosis Transmembrane Conductance regulator (CFTR) channels in the cystic fibrosis bronchial epithelium cell line CFBE41o-. The assay is used to evaluate the capacity of compounds to increase the open probability of existing CFTR channels in the membrane. It makes use of the observation that the yellow fluorescent protein (YFP) variant YFP H148Q, I152L has its fluorescence substantially quenched by halide ions like Cl^− and I^−. (Galietta, Haggie, & Verkman, 2001) (Nagai, et al., 2002)
For this purpose, CFBE41o-cells are seeded in 96 well plates (6000 CFBE cells/well). One day after seeding, the CFBE cells are transduced with adenoviral vectors that direct the expression of the CFTR ΔF508 mutant and of the YFP reporter. Cells are incubated at 27° C., 5% CO2 for 24 hours so as to allow for the proper folding and migration to the membrane of the CFTR channel or treated with a CFTR modulator during 24 hours at 37° C.
The I^−-induced quenching of fluorescence is recorded immediately after injection of I^− for 7 seconds. The capacity of a compound to increase the channel opening is directly correlated with the decrease in fluorescence, and is expressed as (1-(fluorescence after 7 seconds (F)/fluorescence before injection (F0))) and an EC50 can be derived from a (1-F/F0) vs compound concentration plot.

Molecules are shown by their SMILES.

T1 sequence (P13569 with tags, fused parts or gaps DEL508-508): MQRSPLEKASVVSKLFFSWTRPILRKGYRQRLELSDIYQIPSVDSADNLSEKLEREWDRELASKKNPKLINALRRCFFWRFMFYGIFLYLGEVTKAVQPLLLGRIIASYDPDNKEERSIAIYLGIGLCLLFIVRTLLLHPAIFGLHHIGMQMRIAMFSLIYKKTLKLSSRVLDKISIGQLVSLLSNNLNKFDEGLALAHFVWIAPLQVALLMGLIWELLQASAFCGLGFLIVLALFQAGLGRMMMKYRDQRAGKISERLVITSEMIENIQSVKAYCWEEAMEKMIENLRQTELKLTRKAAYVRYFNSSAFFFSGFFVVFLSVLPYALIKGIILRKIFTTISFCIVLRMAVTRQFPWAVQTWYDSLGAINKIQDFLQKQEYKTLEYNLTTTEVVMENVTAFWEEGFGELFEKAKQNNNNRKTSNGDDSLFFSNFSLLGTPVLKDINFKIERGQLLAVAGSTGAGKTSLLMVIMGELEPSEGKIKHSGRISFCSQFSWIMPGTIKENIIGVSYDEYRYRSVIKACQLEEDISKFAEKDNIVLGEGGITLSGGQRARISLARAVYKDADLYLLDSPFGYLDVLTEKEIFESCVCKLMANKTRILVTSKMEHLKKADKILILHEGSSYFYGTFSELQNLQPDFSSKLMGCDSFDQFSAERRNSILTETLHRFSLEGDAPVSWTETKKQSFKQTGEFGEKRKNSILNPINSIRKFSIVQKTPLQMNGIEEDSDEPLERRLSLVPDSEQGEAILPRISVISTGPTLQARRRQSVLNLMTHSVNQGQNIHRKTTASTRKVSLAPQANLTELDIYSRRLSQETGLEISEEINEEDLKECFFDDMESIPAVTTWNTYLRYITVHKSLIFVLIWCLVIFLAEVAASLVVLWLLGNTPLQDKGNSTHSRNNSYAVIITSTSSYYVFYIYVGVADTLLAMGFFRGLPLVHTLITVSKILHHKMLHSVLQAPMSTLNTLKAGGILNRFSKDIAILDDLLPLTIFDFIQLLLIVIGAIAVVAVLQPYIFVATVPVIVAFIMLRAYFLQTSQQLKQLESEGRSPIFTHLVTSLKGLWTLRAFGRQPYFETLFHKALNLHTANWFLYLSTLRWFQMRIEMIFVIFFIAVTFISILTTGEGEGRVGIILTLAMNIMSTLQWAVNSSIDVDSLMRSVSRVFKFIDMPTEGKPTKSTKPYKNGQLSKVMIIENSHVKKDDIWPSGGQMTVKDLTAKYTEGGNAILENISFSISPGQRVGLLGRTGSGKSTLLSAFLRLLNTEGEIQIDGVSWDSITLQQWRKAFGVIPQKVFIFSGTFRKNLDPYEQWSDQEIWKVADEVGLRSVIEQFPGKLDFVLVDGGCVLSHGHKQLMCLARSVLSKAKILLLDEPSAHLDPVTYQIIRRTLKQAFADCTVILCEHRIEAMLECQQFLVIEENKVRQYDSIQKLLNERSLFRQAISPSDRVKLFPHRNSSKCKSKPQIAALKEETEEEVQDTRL

`NC(=O)c1cc(S(=O)(=O)N2CCOCC2)sc1NC(=O)c1ncccc1F` [Compound 77, N-(3-carbamoyl-5-(morpholinosulfonyl)thiophen-2-yl)-3-fluoropicolinamide] had a concentration giving a half-maximal response (EC50) of 3330 nM.

For `NC(=O)c1cc(S(=O)(=O)N2CCOCC2)sc1NC(=O)c1cccnn1` [Compound 79, N-(3-carbamoyl-5-(morpholinosulfonyl)thiophen-2-yl) pyridazine-3-carboxamide], the EC50 was greater than 1000 nM.

`NC(=O)c1cc(S(=O)(=O)N2CCOCC2)sc1NC(=O)c1ccnnc1` [Compound 80, N-(3-carbamoyl-5-(morpholinosulfonyl)thiophen-2-yl)pyridazine-4-carboxamide] registered an EC50 greater than 1000 nM.

Turning to `NC(=O)c1cc(S(=O)(=O)N2CCOCC2)sc1NC(=O)c1ncccn1` [Compound 81, N-(3-carbamoyl-5-(morpholinosulfonyl)thiophen-2-yl) pyrimidine-2-carboxamide], the EC50 was greater than 1000 nM.

`Cc1ccc(C(=O)Nc2sc(S(=O)(=O)Cc3ccccc3)cc2C(N)=O)s1` [Compound 82, N-(5-(benzylsulfonyl)-3-carbamoylthiophen-2-yl)-5-methylthiophene-2-carboxamide] yielded an EC50 of 468 nM.

In turn, `Cc1ccc(C(=O)Nc2sc(S(=O)(=O)C3CCOCC3)cc2C(N)=O)s1` [Compound 84, N-(3-carbamoyl-5-(tetrahydro-2H-pyran-4-ylsulfonyl)thiophen-2-yl)-5-methylthiophene-2-carboxamide] registered an EC50 of 3190 nM.

For `Cc1c(S(=O)(=O)N2CCOCC2)sc(NC(=O)c2ccccc2F)c1C(N)=O` [Compound 85, 2-(2-fluorobenzamido)-4-methyl-5-(morpholinosulfonyl) thiophene-3-carboxamide], the concentration giving a half-maximal response (EC50) worked out at 114 nM.

With `Cc1ccc(C(=O)Nc2sc(S(=O)(=O)c3ccccc3)c(C)c2C(N)=O)s1` [Compound 86, N-(3-carbamoyl-4-methyl-5-(phenylsulfonyl)thiophen-2-yl)-5-methylthiophene-2-carboxamide], the response was half-maximal at 138 nM (EC50).

The compound `CN(Cc1ccccc1)S(=O)(=O)c1cc(C(N)=O)c(NC(=O)C(C)(C)C)s1` [Compound 88, 5-(N-benzyl-N-methylsulfamoyl)-2-pivalamidothiophene-3-carboxamide] showed an EC50 of 162 nM.

Consider `Cc1ccc(C(=O)Nc2sc(S(=O)(=O)c3ccccn3)cc2C(N)=O)s1` [Compound 89, N-(3-carbamoyl-5-(pyridin-2-ylsulfonyl)thiophen-2-yl)-5-methylthiophene-2-carboxamide], for which the EC50 was determined as 378 nM.

`Cc1c(S(=O)(=O)N2CCOCC2)sc(NC(=O)c2cc[nH]n2)c1C(N)=O` [Compound 90, N-(3-carbamoyl-4-methyl-5-(morpholinosulfonyl)thiophen-2-yl)-1H-pyrazole-3-carboxamide] had an EC50 of 261 nM.

Compound `NC(=O)c1cc(S(=O)(=O)N2CCOCC2)sc1NC(=O)c1ccccn1` [Compound 91, N-(3-carbamoyl-5-(morpholinosulfonyl)thiophen-2-yl) picolinamide] displayed a half-maximal effective concentration (EC50) of 1520 nM.

On to `Cc1c(S(=O)(=O)N2CCOCC2)sc(NC(=O)C(C)(C)C)c1C(N)=O` [Compound 92, 4-methyl-5-(morpholinosulfonyl)-2-pivalamidothiophene-3-carboxamide], for which the response was half-maximal at 953 nM (EC50).

The compound `NC(=O)c1cc(S(=O)(=O)N2CCOCC2)sc1NC(=O)c1nccs1` [Compound 93, N-(3-carbamoyl-5-(morpholinosulfonyl)thiophen-2-yl)thiazole-2-carboxamide] gave an EC50 of 3330 nM.

`NC(=O)c1cc(S(=O)(=O)N2CCOCC2)sc1NC(=O)c1cocn1` [Compound 94, N-(3-carbamoyl-5-(morpholinosulfonyl)thiophen-2-yl) oxazole-4-carboxamide]: the EC50 amounted to 3330 nM.

Consider `CC(C)(C)c1cc(C(=O)Nc2sc(S(=O)(=O)c3ccccc3)cc2C(N)=O)n[nH]1` [Compound 96, 5-tert-butyl-N-(3-carbamoyl-5-(phenylsulfonyl)thiophen-2-yl)-1H-pyrazole-3-carboxamide], for which the midpoint of the response, the EC50, lay at 253 nM.

On to `NC(=O)c1cc(S(=O)(=O)N2CCOCC2)sc1NC(=O)c1ccc[nH]1` [Compound 97, N-(3-carbamoyl-5-(morpholinosulfonyl)thiophen-2-yl)-1H-pyrrole-2-carboxamide], for which the EC50 is greater than 1000 nM.

In turn, `NC(=O)c1cc(S(=O)(=O)N2CCOCC2)sc1NC(=O)c1ncco1` [Compound 98, N-(3-carbamoyl-5-(morpholinosulfonyl)thiophen-2-yl)oxazole-2-carboxamide] returned an EC50 greater than 1000 nM.

In the case of `NC(=O)c1cc(S(=O)(=O)N2CCOCC2)sc1NC(=O)c1ccco1` [Compound 99, N-(3-carbamoyl-5-(morpholinosulfonyl)thiophen-2-yl)furan-2-carboxamide], the half-maximal effective concentration (EC50) was found to be 1940 nM.

Compound `NC(=O)c1cc(S(=O)(=O)c2ccccc2)sc1NC(=O)c1ccccc1F` [Compound 100, 2-(2-fluorobenzamido)-5-(phenylsulfonyl) thiophene-3-carboxamide] showed a concentration giving a half-maximal response (EC50) of 121 nM.

In the case of `NC(=O)c1cc(S(=O)(=O)N2CCOCC2)sc1NC(=O)c1cc(C(F)(F)F)[nH]n1` [Compound 102, N-(3-carbamoyl-5-(morpholinosulfonyl)thiophen-2-yl)-5-(trifluoromethyl)-1H-pyrazole-3-carboxamide], it took 215 nM to reach a half-maximal effect (EC50).

With `Cc1c(S(=O)(=O)c2ccccc2)sc(NC(=O)c2ccccc2C(F)(F)F)c1C(N)=O` [Compound 104, 4-methyl-5-(phenylsulfonyl)-2-(2-(trifluoromethyl)benzamido)thiophene-3-carboxamide], the EC50 amounted to 370 nM.

For `Cc1c(S(=O)(=O)N2CCOCC2)sc(NC(=O)c2ccccc2C(F)(F)F)c1C(N)=O` [Compound 105, 4-methyl-5-(morpholinosulfonyl)-2-(2-(trifluoromethyl)benzamido) thiophene-3-carboxamide], the response was half-maximal at 396 nM (EC50).

The compound `CN(Cc1ccc(F)cc1)S(=O)(=O)c1cc(C(N)=O)c(NC(=O)c2ccccc2F)s1` [Compound 106, 2-(2-fluorobenzamido)-5-(N-(4-fluorobenzyl)-N-methylsulfamoyl) thiophene-3-carboxamide] displayed an EC50 of 213 nM.

As for `CN(C(C)(C)C)S(=O)(=O)c1cc(C(N)=O)c(NC(=O)c2ccccc2F)s1` [Compound 107, 5-(N-tert-butyl-N-methylsulfamoyl)-2-(2-fluorobenzamido) thiophene-3-carboxamide], the EC50 was 130 nM.

`CN(CC(F)F)S(=O)(=O)c1cc(C(N)=O)c(NC(=O)c2ccccc2F)s1` [Compound 108, 5-(N-(2,2-difluoroethyl)-N-methylsulfamoyl)-2-(2-fluorobenzamido) thiophene-3-carboxamide] showed an EC50 of 198 nM.

Consider `CCc1cc(C(=O)Nc2sc(S(=O)(=O)c3ccc(F)cc3)cc2C(N)=O)n[nH]1` [Compound 110, N-(3-carbamoyl-5-(4-fluorophenylsulfonyl)thiophen-2-yl)-5-ethyl-1H-pyrazole-3-carboxamide], for which the EC50 is 144 nM.

Regarding `CC(C)(C)C(=O)Nc1sc(S(=O)(=O)c2ccc(F)cc2)cc1C(N)=O` [Compound 112, 5-(4-fluorophenylsulfonyl)-2-pivalamidothiophene-3-carboxamide], the EC50 was 352 nM.

Regarding `NC(=O)c1cc(S(=O)(=O)c2cccc(F)c2)sc1NC(=O)c1ccccc1F` [Compound 115, 2-(2-fluorobenzamido)-5-(3-fluorophenylsulfonyl) thiophene-3-carboxamide], the EC50 was 235 nM.

As to `NC(=O)c1cc(S(=O)(=O)c2ccccc2F)sc1NC(=O)c1ccccc1F` [Compound 117, 2-(2-fluorobenzamido)-5-(2-fluorophenylsulfonyl) thiophene-3-carboxamide], the EC50 is 138 nM.

Compound `CC(C)(C)C(=O)Nc1sc(S(=O)(=O)c2ccc(F)c(F)c2)cc1C(N)=O` [Compound 120, 5-(3,4-difluorophenylsulfonyl)-2-pivalamidothiophene-3-carboxamide] displayed an EC50 of 488 nM.

The compound `Cc1ccc(CN(C)S(=O)(=O)c2cc(C(N)=O)c(NC(=O)c3ccccc3F)s2)cc1` [Compound 124, 2-(2-fluorobenzamido)-5-(N-methyl-N-(4-methylbenzyl)sulfamoyl) thiophene-3-carboxamide] had an EC50 of 503 nM.

With `CN(CC#N)S(=O)(=O)c1cc(C(N)=O)c(NC(=O)c2ccccc2F)s1` [Compound 125, 5-(N-(cyanomethyl)-N-methylsulfamoyl)-2-(2-fluorobenzamido) thiophene-3-carboxamide], the EC50 was found to be 580 nM.

For `NC(=O)c1cc(S(=O)(=O)N2CC(F)(F)C2)sc1NC(=O)c1ccccc1F` [Compound 126, 5-(3,3-diflluoroazetidin-1-ylsulfonyl)-2-(2-fluorobenzamido) thiophene-3-carboxamide], it took 191 nM to reach a half-maximal effect (EC50).

In the case of `CS(=O)(=O)c1cc(C(N)=O)c(NC(=O)c2ccccc2F)s1` [Compound 127, 2-(2-fluorobenzamido)-5-(methylsulfonyl) thiophene-3-carboxamide], a half-maximal response (EC50) required 659 nM.

Regarding `CCS(=O)(=O)c1cc(C(N)=O)c(NC(=O)c2ccccc2F)s1` [Compound 128, 5-(ethylsulfonyl)-2-(2-fluorobenzamido) thiophene-3-carboxamide], the midpoint of the response, the EC50, lay at 400 nM.

What is called EC50 is the concentration giving half of the maximal effect. Higher therefore signals a less potent agent.

(Values after US9382254B2, “Compounds and pharmaceutical compositions thereof for the treatment of cystic fibrosis” (Galapagos NV, priority 2013, dated 2016).)
